Tests used:
B. subtilis 168 [1] = assay: fitness (endpoint OD595 vs no drug) (fraction); higher = more growth
Method in brief: (§1)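 Fitness expresses the optical density reached at the stationary-phase transition as a fraction of the robust mean of no-drug control wells. It is capped at 1. Measurements were OD595 every 30 min for 14 h at 37 °C after inoculation of 384-well plates at OD595 0.01 (30 µl, or 55 µl for S. pneumoniae), minus the first reading.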

S. aureus Newman [2] = assay: as above
Method in brief: as §1

S. pneumoniae D39V [3] = assay: as above
Method in brief: as §1

B. subtilis 168 [4] = assay: Bliss interaction score (quartile over a dose matrix) (fitness difference); higher = more antagonism (negative = synergy)
Method in brief: (§2)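 Growth was read as OD595 when cultures entered stationary phase, and each value was divided by the plate's robust no-drug mean and capped at 1. This normalised ratio is the fitness value, and fitness for each single drug came from the combination data. The Bliss score subtracts the expected fitness, taken as the product, from the observed fitness and is given as quartiles across technical, biological and donor/recipient replicates.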

S. aureus DSM 20231 [5] = assay: as above
Method in brief: as §2

S. aureus Newman [6] = assay: as above
Method in brief: as §2

S. pneumoniae D39V [7] = assay: as above
Method in brief: as §2

S. aureus DSM 20231 [8] = assay: fitness (endpoint OD595 vs no drug) (fraction); higher = more growth
Method in brief: as §1
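Throughout, for Bliss interaction score (quartile over a dose matrix): first quartile when negative (synergy) and third quartile when positive (antagonism).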
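Throughout, for fitness (endpoint OD595 vs no drug): OD595 on entry to stationary phase over no-drug wells; at most 1.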

CN[C@@H]1[C@H](O)[C@H](NC)[C@H]2O[C@@]3(O)C(=O)C[C@@H](C)O[C@H]3O[C@@H]2[C@H]1O [Spectinomycin] + CN(C)c1cc(NC(=O)CNC(C)(C)C)c(O)c2c1C[C@H]1C[C@H]3[C@H](N(C)C)C(O)=C(C(N)=O)C(=O)[C@@]3(O)C(O)=C1C2=O [Tigecycline]
fitness
Conditions | first compound 2 µg/mL | first compound 4 µg/mL | first compound 8 µg/mL | first compound 16 µg/mL
B. subtilis 168 [1], partner 0.039 µg/mL | 0.976 | ≥ 1 | 0.978 | –
B. subtilis 168 [1], partner 0.078 µg/mL | 0.959 | 0.968 | 0.927 | –
B. subtilis 168 [1], partner 0.156 µg/mL | 1 | ≥ 1 | 0.889 | –
S. aureus Newman [2], partner 0.039 µg/mL | – | 0.912 | 0.918 | 0.904
S. aureus Newman [2], partner 0.078 µg/mL | – | 0.954 | 0.928 | 0.908
S. aureus Newman [2], partner 0.156 µg/mL | – | 0.938 | 0.961 | 0.929
S. pneumoniae D39V [3], partner 0.65 µg/mL | – | 0.951 | 0.896 | 0.747
S. pneumoniae D39V [3], partner 1.3 µg/mL | – | 0.981 | 0.905 | 0.788
S. pneumoniae D39V [3], partner 2.6 µg/mL | – | 0.941 | 0.896 | 0.761

fitness, one replicate
Conditions | partner 0.039 µg/mL | partner 0.078 µg/mL | partner 0.125 µg/mL | partner 0.156 µg/mL | partner 0.25 µg/mL | partner 0.5 µg/mL
B. subtilis 168 [1], first compound 2 µg/mL | – | – | ≥ 1 | – | 0.994 | 0.937
B. subtilis 168 [1], first compound 4 µg/mL | – | – | ≥ 1 | – | 0.944 | ≥ 1
B. subtilis 168 [1], first compound 8 µg/mL | – | – | 0.941 | – | 0.931 | ≥ 1
S. aureus Newman [2], first compound 32 µg/mL | 0.592 | 0.585 | – | 0.603 | – | –
S. aureus Newman [2], first compound 64 µg/mL | 0.105 | 0.0894 | – | 0.1 | – | –

Conditions | Bliss interaction score
B. subtilis 168 [4] | 0.043
S. aureus DSM 20231 [5] | -0.0602
S. aureus Newman [6] | 0.0622
S. pneumoniae D39V [7] | 0.0451

CN[C@@H]1[C@H](O)[C@H](NC)[C@H]2O[C@@]3(O)C(=O)C[C@@H](C)O[C@H]3O[C@@H]2[C@H]1O [Spectinomycin] + CN[C@@H]1[C@H](O[C@H]2[C@H](O[C@H]3[C@H](O)[C@@H](O)[C@H](N=C(N)N)[C@@H](O)[C@@H]3N=C(N)N)O[C@@H](C)[C@]2(O)C=O)O[C@@H](CO)[C@H](O)[C@H]1O [Streptomycin]
fitness
Conditions | first compound 2 µg/mL | first compound 4 µg/mL | first compound 8 µg/mL | first compound 16 µg/mL
B. subtilis 168 [1], partner 2 µg/mL | 0.928 | 0.973 | 0.894 | –
B. subtilis 168 [1], partner 4 µg/mL | – | – | 0.623 | –
B. subtilis 168 [1], partner 8 µg/mL | 0.148 | 0.0533 | 0.0588 | –
S. aureus Newman [2], partner 1 µg/mL | – | 0.956 | 0.943 | 0.906
S. aureus Newman [2], partner 2 µg/mL | – | 0.926 | 0.975 | –
S. pneumoniae D39V [3], partner 2 µg/mL | – | 0.946 | 0.89 | –
S. pneumoniae D39V [3], partner 4 µg/mL | – | 0.952 | 0.878 | 0.83
S. pneumoniae D39V [3], partner 8 µg/mL | – | 0.921 | 0.89 | 0.822

one replicate
Conditions | fitness
S. aureus Newman [2], first compound 16 µg/mL, partner 8 µg/mL | 0.0211
S. aureus Newman [2], first compound 32 µg/mL, partner 2 µg/mL | 0.455
S. aureus Newman [2], first compound 32 µg/mL, partner 4 µg/mL | 0.342
S. aureus Newman [2], first compound 32 µg/mL, partner 8 µg/mL | 0.0569
S. aureus Newman [2], first compound 64 µg/mL, partner 2 µg/mL | 0.0619
S. aureus Newman [2], first compound 64 µg/mL, partner 4 µg/mL | 0.0473
S. aureus Newman [2], first compound 64 µg/mL, partner 8 µg/mL | 0.0327
S. pneumoniae D39V [3], first compound 4 µg/mL, partner 16 µg/mL | 0.882
S. pneumoniae D39V [3], first compound 8 µg/mL, partner 16 µg/mL | 0.842
S. pneumoniae D39V [3], first compound 16 µg/mL, partner 2 µg/mL | 0.84
S. pneumoniae D39V [3], first compound 16 µg/mL, partner 16 µg/mL | 0.705

Conditions | Bliss interaction score
B. subtilis 168 [4] | 0.0835
S. aureus DSM 20231 [5] | 0.126
S. aureus Newman [6] | 0.0625
S. pneumoniae D39V [7] | 0.0931

CN[C@@H]1[C@H](O)[C@H](NC)[C@H]2O[C@@]3(O)C(=O)C[C@@H](C)O[C@H]3O[C@@H]2[C@H]1O [Spectinomycin] + COc1cc(Cc2cnc(N)nc2N)cc(OC)c1OC [Trimethoprim]
fitness, one replicate
Conditions | first compound 2 µg/mL | first compound 4 µg/mL | first compound 8 µg/mL | first compound 32 µg/mL | first compound 64 µg/mL
B. subtilis 168 [1], partner 0.1 µg/mL | 0.871 | 0.821 | 0.686 | – | –
B. subtilis 168 [1], partner 0.125 µg/mL | 0.707 | 0.606 | 0.414 | – | –
B. subtilis 168 [1], partner 0.2 µg/mL | 0.781 | 0.762 | 0.386 | – | –
B. subtilis 168 [1], partner 0.4 µg/mL | 0.473 | 0.556 | 0.223 | – | –
B. subtilis 168 [1], partner 1 µg/mL | 0.508 | 0.338 | 0.167 | – | –
B. subtilis 168 [1], partner 2 µg/mL | 0.408 | 0.187 | 0.0702 | – | –
S. aureus DSM 20231 [8], partner 0.125 µg/mL | – | 0.808 | 0.822 | 0.629 | 0.026
S. aureus DSM 20231 [8], partner 0.25 µg/mL | – | – | – | 0.573 | 0.0208
S. aureus DSM 20231 [8], partner 0.5 µg/mL | – | – | – | 0.299 | 0.0374

fitness
Conditions | first compound 4 µg/mL | first compound 8 µg/mL | first compound 16 µg/mL
B. subtilis 168 [1], partner 0.25 µg/mL | – | 0.482 | –
B. subtilis 168 [1], partner 0.5 µg/mL | 0.496 | 0.308 | –
S. aureus DSM 20231 [8], partner 0.125 µg/mL | – | – | 0.654
S. aureus DSM 20231 [8], partner 0.25 µg/mL | 0.598 | 0.593 | 0.649
S. aureus DSM 20231 [8], partner 1 µg/mL | 0.0368 | 0.0298 | 0.0188

Conditions | Bliss interaction score
B. subtilis 168 [4] | -0.0925
S. aureus DSM 20231 [5] | 0.0932
S. aureus Newman [6] | 0.0863
S. pneumoniae D39V [7] | -0.161

— the supplement of paper PMC10627819
